Data published in patent US20240239775A1, “FXR REGULATOR, PREPARATION METHOD THEREFOR, PHARMACEUTICAL COMPOSITION THEREOF AND USE THEREOF” (QINGDAO RUIJI MEDICAL TECHNOLOGY CO., LTD., priority 2021, published 2024).

How the values were obtained:
[1] = biological target: T1, FXR (Homo sapiens, UniProt Q96RI1); test: FXR antagonist screening by TR-FRET (LanthaScreen TR-FRET FXR co-activation assay kit); format: biochemical; settings: Table 1.1, FXR antagonistic activity; TR-FRET with CDCA; geometric means of at least two independent runs
T1 construct: 5 μL of 20 nM FXR-LBD Complete Coregulator buffer G; purchased ThermoFisher PV4833
T1 sequence (Q96RI1 262-486 limits assumed): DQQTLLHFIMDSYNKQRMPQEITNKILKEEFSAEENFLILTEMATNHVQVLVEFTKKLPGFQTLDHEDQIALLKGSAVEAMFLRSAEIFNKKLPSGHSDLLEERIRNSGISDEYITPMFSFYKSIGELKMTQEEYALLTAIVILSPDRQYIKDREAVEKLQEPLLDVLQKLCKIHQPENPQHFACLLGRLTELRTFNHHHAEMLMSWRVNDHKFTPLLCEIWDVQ
Procedure, shortened: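 FXR-LBD (20 nM working solution) mixed with compound, CDCA (200 μM working solution) as agonist, Fluorescein-SRC2-2 and Tb-anti-GST antibody in Coregulator buffer G; 10 h at room temperature. Coactivator recruitment read by TR-FRET, triplicate wells.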

Row | Compound | IC50 [1] | melting point
1 | Cc1c(C(=O)O)oc2ccc(S(=O)(=O)N(CCc3ccccc3)Cc3ccc(C(N)=O)cc3)cc12 [Example F27-S33, 3-methyl-5-(N-(4-carbamoylbenzyl)-N-phenethylsulfamoyl)benzofuran-2-carboxylic acid] | 50 to 100 µM | > 380 °C (dec.)
2 | Cc1c(C(=O)O)oc2ccc(S(=O)(=O)N(CCc3ccccc3)Cc3ccc(OC(F)(F)F)cc3)cc12 [Example F27-S34, 3-methyl-5-(N-(4-(trifluoromethoxy)benzyl)-N-phenethylsulfamoyl)benzofuran-2-carboxylic acid] | 10 to 50 µM | 216 to 217 °C
3 | Cc1c(C(=O)O)oc2ccc(S(=O)(=O)N(CCc3ccccc3)Cc3ccc(SC(F)(F)F)cc3)cc12 [Example F27-S35, 3-methyl-5-(N-(4-(trifluoromethylthio)benzyl)-N-phenethylsulfamoyl)benzofuran-2-carboxylic acid] | 10 to 50 µM | 165 to 166 °C
4 | Cc1c(C(=O)O)oc2ccc(S(=O)(=O)N(CCc3ccccc3)Cc3ccc(C(C)C)cc3)cc12 [Example F27-S36, 3-methyl-5-(N-(4-isopropylbenzyl)-N-phenethylsulfamoyl)benzofuran-2-carboxylic acid] | 10 to 50 µM | 206 to 207 °C
5 | Cc1c(C(=O)O)oc2ccc(S(=O)(=O)N(CCc3ccccc3)Cc3ccc(C(C)(C)C)cc3)cc12 [Example F27-S37, 3-methyl-5-(N-(4-tert-butylbenzyl)-N-phenethylsulfamoyl)benzofuran-2-carboxylic acid] | 10 to 50 µM | 206 to 207 °C
6 | CC(=O)c1ccc(CN(CCc2ccccc2)S(=O)(=O)c2ccc3oc(C(=O)O)c(C)c3c2)cc1 [Example F27-S38, 3-methyl-5-(N-(4-acetylbenzyl)-N-phenethylsulfamoyl)benzofuran-2-carboxylic acid] | 50 to 100 µM | > 380 °C (dec.)
7 | Cc1c(C(=O)O)oc2ccc(S(=O)(=O)N(CCc3ccccc3)Cc3ccc(C(=O)O)cc3)cc12 [Example F27-S39, 3-methyl-5-(N-(4-carboxybenzyl)-N-phenethylsulfamoyl)benzofuran-2-carboxylic acid] | 50 to 100 µM | 254 to 255 °C
8 | Cc1c(C(=O)O)oc2ccc(S(=O)(=O)N(CCc3ccccc3)Cc3ccc(CC(=O)O)cc3)cc12 [Example F27-S41, 3-methyl-5-(N-(4-(carboxymethyl)benzyl)-N-phenethylsulfamoyl)benzofuran-2-carboxylic acid] | 50 to 100 µM | 182 to 183 °C
9 | Cc1c(C(=O)O)oc2ccc(S(=O)(=O)N(CCc3ccccc3)Cc3ccc(/C=C/C(=O)O)cc3)cc12 [Example F27-S42, (E)-3-methyl-5-(N-(4-(2-carboxyvinyl)benzyl)-N-phenethylsulfamoyl)benzofuran-2-carboxylic acid] | 50 to 100 µM | 270 to 271 °C
10 | Cc1c(C(=O)O)oc2ccc(S(=O)(=O)N(CCc3ccccc3)Cc3ccc4ccccc4c3)cc12 [Example F27-S45, 3-methyl-5-(N-(naphthalen-2-ylmethyl)-N-phenethylsulfamoyl)benzofuran-2-carboxylic acid] | 10 to 50 µM | > 380 °C (dec.)
11 | Cc1c(C(=O)O)oc2ccc(S(=O)(=O)N(CCc3ccccc3)Cc3c(F)cccc3F)cc12 [Example F27-S46, 3-methyl-5-(N-(2,6-difluorobenzyl)-N-phenethylsulfamoyl)benzofuran-2-carboxylic acid] | 10 to 50 µM | 180 to 181 °C
12 | Cc1c(C(=O)O)oc2ccc(S(=O)(=O)N(CCc3ccccc3)Cc3c(F)cccc3Cl)cc12 [Example F27-S47, 3-methyl-5-(N-(2-fluoro-6-chlorobenzyl)-N-phenethylsulfamoyl)benzofuran-2-carboxylic acid] | 0.1 to 10 µM | 195 to 196 °C
13 | Cc1c(C(=O)O)oc2ccc(S(=O)(=O)N(CCc3ccccc3)Cc3c(F)cccc3C(F)(F)F)cc12 [Example F27-S48, 3-methyl-5-(N-(2-fluoro-6-(trifluoromethyl)benzyl)-N-phenethylsulfamoyl)benzofuran-2-carboxylic acid] | 10 to 50 µM | 99 to 100 °C
14 | Cc1c(C(=O)O)oc2ccc(S(=O)(=O)N(CCc3ccccc3)Cc3c(Cl)cccc3Cl)cc12 [Example F27-S49, 3-methyl-5-(N-(2,6-dichlorobenzyl)-N-phenethylsulfamoyl)benzofuran-2-carboxylic acid] | 0.1 to 10 µM | 176 to 177 °C
15 | Cc1cccc(C)c1CN(CCc1ccccc1)S(=O)(=O)c1ccc2oc(C(=O)O)c(C)c2c1 [Example F27-S50, 3-methyl-5-(N-(2,6-dimethylbenzyl)-N-phenethylsulfamoyl)benzofuran-2-carboxylic acid] | 0.1 to 10 µM | 211 to 212 °C
16 | Cc1c(C(=O)O)oc2ccc(S(=O)(=O)N(CCc3ccccc3)Cc3ccc(F)cc3F)cc12 [Example F27-S51, 3-methyl-5-(N-(2,4-difluorobenzyl)-N-phenethylsulfamoyl)benzofuran-2-carboxylic acid] | 10 to 50 µM | 155 to 156 °C
17 | Cc1c(C(=O)O)oc2ccc(S(=O)(=O)N(CCc3ccccc3)Cc3ccc(Cl)cc3F)cc12 [Example F27-S52, 3-methyl-5-(N-(2-fluoro-4-chlorobenzyl)-N-phenethylsulfamoyl)benzofuran-2-carboxylic acid] | 10 to 50 µM | > 380 °C (dec.)
18 | Cc1c(C(=O)O)oc2ccc(S(=O)(=O)N(CCc3ccccc3)Cc3ccc(Br)cc3F)cc12 [Example F27-S53, 3-methyl-5-(N-(2-fluoro-4-bromobenzyl)-N-phenethylsulfamoyl)benzofuran-2-carboxylic acid] | 10 to 50 µM | > 380 °C (dec.)
19 | Cc1c(C(=O)O)oc2ccc(S(=O)(=O)N(CCc3ccccc3)Cc3ccc(C(F)(F)F)cc3F)cc12 [Example F27-S55, 3-methyl-5-(N-(2-fluoro-4-(trifluoromethyl)benzyl)-N-phenethylsulfamoyl)benzofuran-2-carboxylic acid] | 50 to 100 µM | 174 to 175 °C
20 | Cc1c(C(=O)O)oc2ccc(S(=O)(=O)N(CCc3ccccc3)Cc3ccc(F)cc3Cl)cc12 [Example F27-S56, 3-methyl-5-(N-(2-chloro-4-fluorobenzyl)-N-phenethylsulfamoyl)benzofuran-2-carboxylic acid] | 10 to 50 µM | 145 to 146 °C
21 | Cc1c(C(=O)O)oc2ccc(S(=O)(=O)N(CCc3ccccc3)Cc3ccc(F)cc3C(F)(F)F)cc12 [Example F27-S57, 3-methyl-5-(N-(2-(trifluoromethyl)-4-fluorobenzyl)-N-phenethylsulfamoyl)benzofuran-2-carboxylic acid] | 10 to 50 µM | 156 to 157 °C
22 | Cc1c(C(=O)O)oc2ccc(S(=O)(=O)N(CCc3ccccc3)Cc3ccc(C(F)(F)F)cc3C(F)(F)F)cc12 [Example F27-S58, 3-methyl-5-(N-(2,4-bis(trifluoromethyl)benzyl)-N-phenethylsulfamoyl)benzofuran-2-carboxylic acid] | 50 to 100 µM | 155 to 156 °C
23 | Cc1c(C(=O)O)oc2ccc(S(=O)(=O)N(CCc3ccccc3)Cc3ccc(Br)cc3C(F)(F)F)cc12 [Example F27-S59, 3-methyl-5-(N-(2-(trifluoromethyl)-4-bromobenzyl)-N-phenethylsulfamoyl)benzofuran-2-carboxylic acid] | 50 to 100 µM | 150 to 151 °C
24 | Cc1c(C(=O)O)oc2ccc(S(=O)(=O)N(CCc3ccccc3)Cc3ccc(Cl)cc3Cl)cc12 [Example F27-S60, 3-methyl-5-(N-(2,4-dichlorobenzyl)-N-phenethylsulfamoyl)benzofuran-2-carboxylic acid] | 10 to 50 µM | 177 to 178 °C
25 | Cc1ccc(F)cc1CN(CCc1ccccc1)S(=O)(=O)c1ccc2oc(C(=O)O)c(C)c2c1 [Example F27-S61, 3-methyl-5-(N-(2-methyl-5-fluorobenzyl)-N-phenethylsulfamoyl)benzofuran-2-carboxylic acid] | 10 to 50 µM | > 380 °C (dec.)
26 | Cc1c(C(=O)O)oc2ccc(S(=O)(=O)N(CCc3ccccc3)Cc3c(F)cc(Cl)cc3F)cc12 [Example F27-S62, 3-methyl-5-(N-(2,6-difluoro-4-chlorobenzyl)-N-phenethylsulfamoyl)benzofuran-2-carboxylic acid] | 10 to 50 µM | > 380 °C (dec.)
27 | Cc1c(C(=O)O)oc2ccc(S(=O)(=O)N(CCc3ccccc3)c3ccc(N4CCOCC4)cc3)cc12 [Example F27-S63, 3-methyl-5-(N-(4-morpholinophenyl)-N-phenethylsulfamoyl)benzofuran-2-carboxyli acid] | 50 to 100 µM | > 380 °C (dec.)
28 | Cc1c(C(=O)O)oc2ccc(S(=O)(=O)N(CCc3ccccc3)c3ccc(N4CCN(C)CC4)cc3)cc12 [Example F27-S64, 3-methyl-5-(N-(4-(4-methylpiperazin-1-yl)phenyl)-N-phenethylsulfamoyl)benzofuran-2-carboxylic acid] | 50 to 100 µM | 152 to 153 °C
29 | Cc1c(C(=O)O)oc2ccc(S(=O)(=O)N(CCc3ccccc3)c3ccc(N4CCN(C(=O)OC(C)(C)C)CC4)cc3)cc12 [Example F27-S65, 3-methyl-5-(N-(4-(4-(tert-butoxycarbonyl)piperazin-1-yl)phenyl)-N-phenethylsulfamoyl)benzofuran-2-carboxylic acid] | 10 to 50 µM | > 380 °C (dec.)
